Measured values published in publication PMC11540844, “Enhancing transcription–replication conflict targets ecDNA-positive cancers” (Nature, 2024).
Like-named read-outs stand apart in the source and are kept apart here.

What was measured:
[1] = tested on: COLO320HSR cells; assay: Cell viability / CTG proliferation (CellTiter-Glo); assay type: cell-based, human; conditions: for IC50: Extended Data Fig. 8
Protocol: (§1) Cell viability assay was performed using CellTiter-Glo (Promega, catalgoue no. G8461) as previously described. Briefly, cells were seeded into a 384-well plate one day before adding inhibitors. Equal volumes of vehicles or drugs diluted at indicated concentration were added into each well the next day, and the cells were incubated for three days. On the third day, after equilibrating plate and CellTiter-Glo reagent at room temperature for 30 min, reagent was added into each well and incubated for 15 min at room temperature. Luminescence was measured using a Synergy 2 microplate reader. Four biological replicates were performed for each condition. Data analysis was performed with GraphPad Prism (v.9.1.0).

[2] = tested on: COLO320DM cells; assay: Cell viability / CTG proliferation (CellTiter-Glo); assay type: cell-based, human
Protocol: as §1

[3] = tested on: SNU16 cells; assay: Cell viability (CellTiter-Glo); assay type: cell-based, human; conditions: Extended Data Fig. 8; read-out: IC50 SNU16
Protocol: as §1, with “(v.9.1.0). […]” for “(v.9.1.0).”

[4] = tested on: ecDNA-containing tumour cells; assay: TUNEL and PI-Annexin V staining (apoptosis); assay type: cell-based, human; conditions: 1 µM CHIR-124, ecDNA-containing vs HSR cells
Protocol: TUNEL assay (Invitrogen, catalogue no. C10617) was performed to detect DNA fragmentation during apoptosis. COLO320DM, COLO320HSR and SNU16 cells were treated with 1 µM CHIR-124 for indicated times. All cells including floating cells were collected and spun down onto slides using a cytospin (Thermo Scientific Cytospin 4 Centrifuge). Slides were fixed with 4% PFA and permeabilized with 0.25% Triton X-100, followed by labelling of free double strand end with EdUTP by reaction catalysed by TdT enzyme in a humidified chamber at 37 °C for 60 min. Incorporated EdUTP was detected through Click-iT Plus TUNEL reaction according to the manufacturer’s manual at 37 °C for 30 min. Slides were counterstained with DAPI and mounted with ProLong Diamond Antifade.
Cell apoptosis was detected through flow cytometry using a FITC Annexin V Apoptosis Detection Kit (BD Biosciences, catalogue no. 556547). Cells were treated with 1 µM of CHIR-124 for the indicated time, and all the cells including floating cells were collected. After washing with PBS twice and cell number counting, cells were resuspended in 1× binding buffer provided by the kit at a concentration of 1 × 10^6 cells per millilitre. […] After incubation at room temperature for 15 min, all the samples were analysed with BD LSR II flow cytometry (BD Biosciences) within 1 h. Flow cytometry data were analysed through Beckman Coulter Kaluza software (v.2.1).

[5] = tested on: γH2AX in COLO320DM and COLO320HSR cells; assay: γH2AX IF combined with EdU labelling; assay type: cell-based, human; conditions: COLO320DM vs COLO320HSR, especially EdU+ cells
Protocol: Coverslips were coated with 100 µg ml^−^1 poly-L-lysine overnight or 10 µg ml^−^1 laminin for 1 h at 37 °C before seeding cells. Asynchronized cells were seeded onto slides and subject to different treatment. Where indicated, EdU was added to each well at 10 µg ml^−^1 30 min before collecting samples. IF and dual-IF DNA FISH staining were performed as described before. Briefly, slides were fixed with ice-cold 4% paraformaldehyde (PFA) for 15 min, followed by permeabilization with 0.5% Triton X-100 in PBS for 15 min at room temperature. Samples were blocked with 3% BSA in PBS for 1 h at room temperature before incubation with primary antibody diluted in blocking buffer at 4 °C overnight. Dilution ratio for first antibodies was as follows: γH2Ax, 1:500; pRPA2-S33, 1:1,000; pCHK1S345, 1:250; 53BP1, 1:500; cyclin A, 1:100; pRNAPII S2/S4, 1:1,000. […]
Image analysis and quantification were performed using the open-source software CellProfiler (v.4.2.1). For foci number analysis, DAPI staining, IF staining and DNA FISH channel were analysed through automatic thresholding and segmentation to cell nuclei, pRPA2S33/γH2AX foci and DNA FISH foci respectively. […] For fluorescence intensity measurement, nuclei were called based on DAPI channel through automatic thresholding and segmentation; mean fluorescence intensity was retrieved by measuring mean fluorescence intensity within each nucleus.

[6] = tested on: GBM39ec cells; assay: Cell viability (CellTiter-Glo); assay type: cell-based, human; conditions: Extended Data Fig. 8
Protocol: as §1

[7] = tested on: GBM39HSR cells; assay: Cell viability (CellTiter-Glo); assay type: cell-based, human; conditions: Extended Data Fig. 8
Protocol: as §1

[8] = tested on: pCHK1-S345 in HT29 cells; assay: AlphaLISA SureFire Ultra p-CHK1 (Ser345) assay in HT29 cells; assay type: cell-based; conditions: 16 h, read-out: CHK1 cellular potency AlphaLisa (IC50)
Protocol: Compound activity in cells was measured using an AlphaLISA SureFire Ultra p-CHK1 (Ser345) assay (Perkin Elmer, catalogue no. ALSU-PCHK1-A10K). HT29 cells were cultured in McCoy 5 A medium with 10% FBS and 1% penicillin-streptomycin and seeded to 96-well plates (Corning, catalogue no. 3599). Compounds were serially diluted in DMSO over a 10-point dose range with 3-fold dilution, and compound solution was added to each well containing cells. Plates were centrifuged at 1,000 rpm for 30 s. Plates were incubated at 37 °C for 16 h. Supernatant was removed by flicking the plate against a paper towel. Wells were washed once with PBS solution. To each well was added freshly prepared lysis buffer and plates were agitated on a plate shaker at 400 rpm for 30 min. The 96-well cell plates were centrifuged at 1,500 rpm for 1 min. From each well was transferred 10 µl of the lysates to a 384-well Optiplate (Perkin Elmer, catalogue no. 6007290). To each well was added Acceptor Mix (5 µl) and the plates were sealed and wrapped in foil. Plates were agitated on a plate shaker for 2 min, then incubated at room temperature for 1 h. To each well was added Donor Mix (5 µl) and the plates were sealed and wrapped in foil. Plates were agitated on a plate shaker for 2 min, then incubated at room temperature for 1 h. AlphaLisa signal was read on an EnVision multimode plate reader (Perkin Elmer). […]

[9] = tested on: CHK1/CHK2; assay: CHK1/CHK2 selectivity; assay type: biochemical
[10] = molecular target: T1, Full-length human CHK1 protein (Homo sapiens, UniProt O14757); assay: Kinase HTRF biochemical assay (CHK1 enzyme inhibition); conditions: HTRF KinEASE, ATP 1 mM; read-out: CHK1 biochemical potency (IC50)
T1 construct: purchased Carna Biosciences, Inc. 02-117
T1 sequence (O14757 1-476): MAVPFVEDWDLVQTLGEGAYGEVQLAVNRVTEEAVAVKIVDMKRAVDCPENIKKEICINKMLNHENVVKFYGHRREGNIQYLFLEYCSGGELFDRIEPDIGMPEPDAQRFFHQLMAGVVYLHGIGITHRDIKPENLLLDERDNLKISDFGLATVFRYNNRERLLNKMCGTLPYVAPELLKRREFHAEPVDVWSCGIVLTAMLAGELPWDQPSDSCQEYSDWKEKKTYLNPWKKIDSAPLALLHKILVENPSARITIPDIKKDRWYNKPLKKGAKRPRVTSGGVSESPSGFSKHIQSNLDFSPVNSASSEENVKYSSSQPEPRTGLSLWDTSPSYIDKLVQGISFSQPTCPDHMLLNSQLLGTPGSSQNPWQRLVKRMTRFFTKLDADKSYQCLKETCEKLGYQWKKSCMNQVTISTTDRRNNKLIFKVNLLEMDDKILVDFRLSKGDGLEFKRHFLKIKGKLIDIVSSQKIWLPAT
Protocol: CHK1 enzyme activity was measured using a homogeneous time resolved fluorescence (HTRF) KinEASE assay (Cisbio, catalogue no. 62ST1PEC). Full-length human CHK1 protein (GenBank accession number NP_001265.1) was obtained from Carna Biosciences, Inc. (catalogue no. 02-117). The enzyme reaction was carried out in assay buffer containing (final concentrations): CHK1 enzyme (0.012 ng µl^−^1), MgCl2 (5 mM) and DTT (1 mM). To determine compound dose response, DMSO stock solutions were serially diluted in a ten-point concentration series in duplicate. Compound solution (50 nl) was added to 384-well assay plates (Greiner, catalogue no. 784075). To each well containing compound solution was added assay buffer solution (5 µl). Plates were centrifuged at 1,000 rpm for 1 min, then incubated at room temperature for 10 min. The reaction was started by addition of substrate buffer (5 µl per well) containing (final concentrations): STK substrate 1-biotin (120 nM) and ATP (1 mM). Assay plates were centrifuged at 1,000 rpm for 1 min, then incubated at room temperature for 60 min. The reaction was stopped by the addition of detection buffer (Cisbio, 10 µl) containing (final concentrations): STK antibody cryptate (0.25 nM) and streptavidin-XL665 (7.5 nM). […] HTRF signal was read on an EnVision multimode plate reader (Cisbio) in HTRF mode. […]

[11] = Extended Data Fig. 8, read-out: IC50 COLO320DM

Compound | IC50 [1] [nM] | IC50 fold higher in COLO320HSR compared to COLO320DM ([1]; Fig. 3d) | IC50 [2, 11] [nM] | IC50 [3] [nM] | cell apoptosis (TUNEL, PI-Annexin V) [4] | DNA damage (γH2AX IF) [5] | IC50 [6] [nM] | IC50 [7] [nM] | IC50 ([2]; COLO320DM cells, read-out: CTG proliferation ecDNA+ (IC50)) [nM] | IC50 [8] [nM] | CHK1/CHK2 selectivity [9] [×] | IC50 [10] [nM]
O=c1[nH]c2ccc(Cl)cc2c(N[C@@H]2CN3CCC2CC3)c1-c1nc2ccccc2[nH]1 [CHIR-124] | 1120 | approximately 4 fold | 146 | 150 | more rapid and higher degree of cell apoptosis | significantly higher DNA damage in COLO320DM compared with COLO320HSR | 581 | 1660 | – | – | – | –
N[C@@H]1CCCN(c2c(Br)cnc3[nH]cc(NC(=O)C4CC4)c23)C1 [GDC-0575] | 588 | – | 167 | – | – | – | – | – | 105 | 122 | 1.5 | 12
